Data as given in patent publication US20080064701A1, “Anti-diabetic combinations” (priority 2007, published 2008).
Where two headings read alike, the source gives them in different places.

Assays:
[1] = tested on: patients with type 2 diabetes; conditions: human, in vivo; for patients who had adverse events: 24 weeks
Source text: Laboratory results were then reviewed for these particular patients to determine which patients actually had clinically important changes in a given laboratory parameter.

patients with T2DM = conditions: cited from earlier work
[2] = monotherapy, 100 or 200 mg daily

Structure (SMILES)	patients who had adverse events [1]	clinically important decreases in any hematological parameter attributable to drug [1]	responsibility for clinically meaningful elevations in ALT and AST [1]	weight gain (patients with T2DM; 24-week monotherapy studies)	patients achieving a HbA1C of <7% (patients with T2DM; 24-week, background pioglitazone (30 or 45 mg daily))	mean HbA1C reduction (patients with T2DM; 24-week, sitagliptin 100 mg daily add-on to pioglitazone (30 or 45 mg daily), mean baseline HbA1C 8.1%)	HbA1C (patients with T2DM; [2])	hypoglycemia (patients with T2DM; [2])	fasting and postprandial glycaemia (patients with T2DM; monotherapy)	mean placebo-subtracted reduction in HbA1C (patients with T2DM; sitagliptin 100 mg daily added to at least 1,500 mg per day of metformin)	patients achieving a HbA1C of <7% (patients with T2DM; sitagliptin 100 mg daily added to at least 1,500 mg per day of metformin, mean baseline HbA1C 8%)
CN(C)C(=N)N=C(N)N [metformin]	10%	–	–	–	–	–	–	–	–	–	–
N[C@@H](CC(=O)N1CCn2c(nnc2C(F)(F)F)C1)Cc1cc(F)c(F)cc1F [sitagliptin, Sitagliptin]	8%	no patient experienced clinically important decreases	not responsible for the variations	no significant weight gain	45.4%	0.7%	significantly reduced	no significant increase in hypoglycemia	reduced both fasting and postprandial glycaemia	0.65%	47%
